Laboratory results: PubChem BioAssay (NCI)
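Interpolation was linear, between the two tested concentrations surrounding the appropriate level; five concentrations were tested over 48 hours in 96-well plates. GI50 is the concentration that inhibits growth by half. Definition used: TGI = concentration required for complete inhibition of growth.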

Assays:
Experiment in all cases: inhibition of tumour cell growth, NCI panel, 48 h
CAKI-1 renal = tested on: CAKI-1 renal
T-47D breast = tested on: T-47D breast
BT-549 breast = tested on: BT-549 breast
NCI-H522 lung = tested on: NCI-H522 lung
NCI/ADR-RES ovarian = tested on: NCI/ADR-RES ovarian
SF-295 CNS = tested on: SF-295 CNS
SF-539 CNS = tested on: SF-539 CNS
SK-OV-3 ovarian = tested on: SK-OV-3 ovarian
LOX IMVI melanoma = tested on: LOX IMVI melanoma
OVCAR-8 ovarian = tested on: OVCAR-8 ovarian

| SMILES | GI50 (CAKI-1 renal) [µM] | TGI (CAKI-1 renal) [µM] | GI50 (T-47D breast) [µM] | GI50 (BT-549 breast) [µM] | TGI (BT-549 breast) [µM] | GI50 (NCI-H522 lung) [µM] | TGI (NCI-H522 lung) [µM] | GI50 (NCI/ADR-RES ovarian) [µM] | TGI (NCI/ADR-RES ovarian) [µM] | GI50 (SF-295 CNS) [µM] | TGI (SF-295 CNS) [µM] | GI50 (SF-539 CNS) [µM] | TGI (SF-539 CNS) [µM] | GI50 (SK-OV-3 ovarian) [µM] | TGI (SK-OV-3 ovarian) [µM] | GI50 (LOX IMVI melanoma) [µM] | TGI (LOX IMVI melanoma) [µM] | GI50 (OVCAR-8 ovarian) [µM] | TGI (OVCAR-8 ovarian) [µM] | TGI (T-47D breast) [µM] |
| --- | --- | --- | --- | --- | --- | --- | --- | --- | --- | --- | --- | --- | --- | --- | --- | --- | --- | --- | --- | --- |
| NC(=O)c1c(NC(=O)c2cccc(C(F)(F)F)c2)sc2c1CCC(=O)C2 | 0.351 | 7.29 | 0.274 | 0.352 | 9.08 | 0.299 | 1.62 | 0.528 | 7.69 | 1.23 | 9.07 | 0.328 | 1.23 | 2.8 | 8.39 | 0.356 | 2.8 | 0.519 | > 100 |  |
| COc1ccc2nc3cc(Cl)ccc3c(Nc3ccc(O)c(CN4CCCC4)c3)c2c1 | 2.09 | 4.88 | 2.18 | 14.5 | 28.1 | 1.67 | 3.79 | 1.93 | 4.54 | 1.6 | 3.53 | 1.87 | 3.49 | 6.21 | 19 | 1.73 | 3.47 | 2.01 | 4.87 | 6.46 |
| O=C(Nc1nc2ccc(F)cc2s1)c1cccnc1Nc1ccc(Cl)cc1Cl | 1.91 | 8.71 | 1.61 | 2.97 | 17.5 | 2.53 | > 25.6 | 2.59 | 10.5 | 1.93 | 8.02 | 4.15 | 15.3 | 2.26 | 7.38 | 3.62 | 14.6 | 3.43 | 22.8 | 8.01 |
| C=C[C@@]1(C)CC(=O)[C@]2(O)[C@@]3(C)[C@@H](O)CCC(C)(C)[C@@H]3[C@H](O)[C@@H](OC(C)=O)[C@@]2(C)O1 |  | > 100 |  |  | > 100 |  | > 100 |  | > 100 |  | > 100 |  | > 100 |  | > 100 |  | > 100 |  | > 100 | > 100 |
| CCOC(=O)C(=Cc1c(-c2ccccc2)[nH]c2ccccc12)C(=O)OCC | 8.26 | > 49.8 | 2.62 | 5.17 | 38.5 | 3.32 | 11.8 | 2.84 | 14.6 | 7.27 | 63.8 | 14.4 | 30.9 | 13.6 | 49.2 | 5.58 | 19.4 | 4.08 | 17.9 | 8.43 |
| COc1ccc(-c2nn3ncccc3c2-c2ccnc(Nc3cccc(C(F)(F)F)c3)n2)cc1 | 7 | > 25 | 6.53 | 12.4 | > 25 | 6.39 | > 21.7 | 6.16 | > 25 | 7.6 | > 25 | 13.8 | > 25 | 7.76 | > 25 | 6.53 | > 25 | 8.74 | > 25 | > 25 |
| COC12C=C/C(=C(/C(=O)OCc3csc(SC)n3)C(=O)CCCCCCCCC3(OC)C=C/C(=C(/C(=O)OCc4cnc(SC)s4)C(=O)CCCCCCCC1)O3)O2 (stereo not given) | 70 | > 100 | 2.94 | 4.53 | 69.8 | 1.5 | 21.1 | 31.3 | > 100 | 3.33 | 25.7 | 4.03 | 19.8 | 9.06 | > 100 | 1.2 | 3.53 | 2.08 | 32.4 | > 100 |
| CCn1c(-c2nonc2N)nc2c(C#CC(C)(C)O)ncc(OC[C@@H]3CCCN3)c21 | > 25 | > 25 | 0.408 | 4.77 | > 22.8 | 3.1 | 6.71 | > 25 | > 25 | 3.07 | > 25 | 1.52 | 15.8 | 0.968 | > 19 | 5.5 | > 19.4 | 6.4 | > 25 | > 25 |
| Cc1cc([C@H](C)Nc2nccc(N3C(=O)OC[C@@H]3[C@H](C)F)n2)ncc1-c1ccnc(C(F)(F)F)c1 | 27.8 | > 100 | 16.4 | 18.1 | 82.6 | 31.7 | > 100 | 23.3 | > 100 | 20.1 | > 100 | 61.3 | > 100 |  |  | 36.5 | > 100 | 33.5 | > 100 | > 100 |
| COc1ccc2c(c1)c(-c1cc(-c3cn(C)c4ccc(OC)cc34)[nH]n1)cn2C | > 100 | > 100 | > 100 | > 100 | > 100 | > 100 | > 100 | > 100 | > 100 | > 100 | > 100 | > 100 | > 100 | > 100 | > 100 | > 100 | > 100 | > 100 | > 100 | > 100 |
| O=C(O)C(Cc1c[nH]c2ccccc12)N1C(=O)c2ccccc2C1=O (stereo not given) |  | > 100 |  |  | > 100 |  | > 100 |  | > 100 |  | > 100 |  | > 100 |  | > 100 |  | > 100 |  | > 100 | > 100 |
| Cc1ccc(NCCNCC(O)CO)c2c(=O)c3ccccc3sc12 (stereo not given) | 1.64 | 3.38 | 1.79 | 2.47 | 10.5 | 1.91 | 4.09 | 1.67 | 3.75 | 1.52 | 3.09 | 1.67 | 3.19 | 1.65 | 3.86 | 1.43 | 2.84 | 1.92 | 4.77 | 4.08 |
| N#Cc1c(-c2ccc(Cl)cc2)csc1NC(=O)Nc1cccc(C(F)(F)F)c1 | 2.7 | 10.5 | 1.76 | 2.62 | 9.23 | 1.65 | 5.99 | 2.1 | 4.7 | 1.74 | 4.21 | 2.06 | 4.85 | 2.54 | 6.89 | 2.64 | 9.48 |  |  | 7.79 |
